From patent US20230041738A1, “1H-PYRAZOLO[4,3-d]PYRIMIDINE COMPOUNDS AS TOLL-LIKE RECEPTOR 7 (TLR7) AGONISTS” (BRISTOL-MYERS SQUIBB COMPANY, priority 2020, published 2023) come the findings set out here.

Broadly, the EC50 is the midpoint of the concentration-response curve. Read a low EC50 as a more potent agent.

Test [1] concerns the target T1, human TLR7 (Homo sapiens, UniProt Q9NYK1).
T1 construct: host or cells: HEK-Blue TLR7 cells (engineered human embryonic kidney cells)
T1 sequence (Q9NYK1 27-1049): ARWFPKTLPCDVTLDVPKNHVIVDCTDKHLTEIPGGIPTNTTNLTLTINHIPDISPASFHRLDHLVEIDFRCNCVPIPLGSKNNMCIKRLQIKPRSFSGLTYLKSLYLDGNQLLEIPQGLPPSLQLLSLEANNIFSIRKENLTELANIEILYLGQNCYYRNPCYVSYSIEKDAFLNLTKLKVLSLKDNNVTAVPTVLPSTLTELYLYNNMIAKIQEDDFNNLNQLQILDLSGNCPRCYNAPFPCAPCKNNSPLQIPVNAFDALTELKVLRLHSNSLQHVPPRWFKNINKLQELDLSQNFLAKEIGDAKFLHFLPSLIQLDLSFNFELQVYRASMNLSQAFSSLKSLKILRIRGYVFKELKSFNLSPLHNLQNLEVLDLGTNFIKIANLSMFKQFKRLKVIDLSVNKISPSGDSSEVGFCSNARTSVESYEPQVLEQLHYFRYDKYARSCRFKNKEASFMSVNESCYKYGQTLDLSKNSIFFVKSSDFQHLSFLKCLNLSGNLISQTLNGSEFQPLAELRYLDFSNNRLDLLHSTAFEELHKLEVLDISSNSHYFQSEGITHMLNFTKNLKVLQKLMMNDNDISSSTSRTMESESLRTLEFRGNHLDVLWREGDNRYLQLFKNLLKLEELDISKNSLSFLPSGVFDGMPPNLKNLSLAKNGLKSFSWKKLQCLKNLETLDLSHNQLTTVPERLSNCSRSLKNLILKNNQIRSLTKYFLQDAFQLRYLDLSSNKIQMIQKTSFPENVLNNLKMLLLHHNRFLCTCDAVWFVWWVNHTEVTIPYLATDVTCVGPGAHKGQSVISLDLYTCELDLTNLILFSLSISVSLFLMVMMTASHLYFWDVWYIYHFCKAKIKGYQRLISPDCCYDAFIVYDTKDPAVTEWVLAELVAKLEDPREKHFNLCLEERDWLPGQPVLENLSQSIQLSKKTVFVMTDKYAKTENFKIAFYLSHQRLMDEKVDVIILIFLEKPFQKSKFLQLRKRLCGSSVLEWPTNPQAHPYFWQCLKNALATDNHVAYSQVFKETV
Nature of the test: Human TLR7 agonist activity assay (hTLR7 reporter, HEK-Blue TLR7 cells, SEAP). Type of test: cell-based. The settings on record: HEK-Blue TLR7 cells with SEAP reporter, 18 h treatment; average where assay performed multiple times. The essentials:
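HEK-Blue TLR7 cells (15,000/well) treated with compound for 18 h at 37 °C, 5% CO2. Secreted SEAP measured with Quanti-Blue, 30 min, OD 620 nm. EC50 taken as concentration giving half-maximal response between baseline and maximum.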

Test [2] deals with CD69. Briefly: Induction of CD69 in human whole blood (hWB). The class given is cell-based. The settings on record: 17 hrs at 37 C, CD69 surface staining, 100% set to 1 uM resiquimod, average where performed multiple times. As to the method: The induction of Type I interferon (IFN) MX-1 genes and the B-cell activation marker CD69 are downstream events that occur upon activation of the TLR7 pathway. The following is a human whole blood assay that measures their induction in response to a TLR7 agonist.
Heparinized human whole blood was harvested from human subjects and treated with test TLR7 agonist compounds at 1 mM. The blood was diluted with RPMI 1640 media and Echo was used to predot 10 nL per well giving a final concentration of 1 uM (10 nL in 10 uL of blood). After mixing on a shaker for 30 sec, the plates were covered and placed in a 37° C. chamber for o/n=17 hrs. Fixing/lysis buffer was prepared (5×→1× in H2O, warm at 37° C.; Cat #BD 558049) and kept the perm buffer (on ice) for later use.
For surface markers staining (CD69): prepared surface Abs: 0.045 ul hCD14-FITC (ThermoFisher Cat #MHCD1401)+0.6 ul hCD19-ef450 (ThermoFisher Cat #48-0198-42)+1.5 ul hCD69-PE (cat #BD555531)+0.855 ul FACS buffer. Added 3 ul/well, spin1000 rpm for 1 min and mixed on shaker for 30 sec, put on ice for 30 mins. Stop stimulation after 30 min with 70 uL of prewarmed 1× fix/lysis buffer and use Feliex mate to resuspend (15 times, change tips for each plate) and incubate at 37C for 10 min.
Centrifuge at 2000 rpm for 5 min aspirate with HCS plate washer, mix on shaker for 30 sec and then wash with 70 uL in dPBS and pelleted 2× s (2000 rpm for 5 min) and 50 ul wash in FACS buffer pelleted 1×s(2000 rpm for 5 min). Mix on shaker for 30 sec. For Intracellular markers staining (MX-1): Add 50 ul of BD Perm buffer III and mix on shaker for 30 sec. Incubate on ice for 30 min (in the dark). Wash with 50 uL of FACS buffer 2× (spin @2300 rpm×5 min after perm) followed by mixing on shaker for 30 sec. Resuspended in 20 ul of FACS buffer containing MX1 antibody ( )(4812)-Alexa 647: Novus Biologicals #NBP2-43704AF647) 20 ul FACS bf+0.8 ul hlgG+0.04 ul MX-1. Spin 1000 rpm for 1 min, mix on shaker for 30se and the samples were incubated at RT in the dark for 45 min followed by washing 2× FACS buffer (spin @2300 rpm×5 min after perm). Resuspend 20 ul (35 uL total per well) of FACS buffer and cover with foil and place in 4° C. to read the following day. Plates were read on iQuePlus. The results were loaded into toolset and IC50 curves are generated in curve master. The y-axis 100% is set to 1 uM of resiquimod.

For `COc1cc(CN2C[C@H]3C[C@@H]2CN3C)ccc1Cn1ncc2nc(N)nc(N[C@H](CO)CC3CC3)c21` [Compound 137, (2S)-2-({5-amino-1-[(2-methoxy-4-{[(1R,4R)-5-methyl-2,5-diaza-bicyclo[2.2.1]heptan-2-yl]methyl}-phenyl]methyl]-1H-pyrazolo[4,3-d]pyrimidin-7-yl}amino)-3-cyclopropylpropan-1-ol], the results for the EC50 in test [1] and in test [2] were 576 nM and 13.2 nM, respectively.

Turning to `CCC[C@@H](CCO)Nc1nc(N)nc2cnn(Cc3ncc(CN4C[C@H]5C[C@@H]4CN5CCO)cc3OC)c12` [Compound 138, (3S)-3-({5-amino-1-[(5-{[(1R,4R)-5-(2-hydroxyethyl)-2,5-diaza-bicyclo[2.2.1]heptan-2-yl]methyl}-3-methoxypyridin-2-yl)methyl]-1H-pyrazolo[4,3-d]pyrimidin-7-yl}amino)hexan-1-ol], the 50% effective concentration (EC50) was found to be 278 nM in test [1] and 3 nM in test [2].

Turning to `CCCCNc1nc(N)nc2cnn(Cc3ccc(CN4C[C@H]5CN(CCO)C[C@H]5C4)cc3OC)c12` [Compound 139, 2-[(3aR,6aS)-5-[(4-{[5-amino-7-(butylamino)-1H-pyrazolo[4,3-d]pyrimidin-1-yl]methyl}-3-methoxy-pheny)methyl]-octahydropyrrolo[3,4-c]pyrrol-2-yl]ethan-1-ol], the concentration for a half-maximal effect (EC50) amounted to 19.6 nM in test [1] and 1.9 nM in test [2].

On to `CCC[C@@H](CCO)Nc1nc(N)nc2cnn(Cc3cnc(CN4C[C@H]5C[C@@H]4CN5CCO)cc3OC)c12` [Compound 140], for which the half-maximal effective concentration (EC50) in test [1] was 716 nM; in test [2] it was 31.6 nM.

Take `CCC[C@@H](CCO)Nc1nc(N)nc2c(C)nn(Cc3ccc(CN4C[C@H]5C[C@@H]4CN5CCO)cc3OC)c12` [Compound 141, (3S)-3-({5-amino-1-[(4-{[(1R,4R)-5-(2-hydroxyethyl)-2,5-diazabicyclo [2.2.1]heptan-2-yl]methyl}-2-methoxyphenyl)methyl]-3-methyl-1H-pyrazolo[4,3-d]pyrimidin-7-yl}amino)hexan-1-ol]: the EC50 was 59.9 nM in test [1] and 10.6 nM in test [2].

Turning to `CCCCNc1nc(N)nc2cnn(Cc3ccc(CN4C[C@H]5CNC[C@H]5C4)cc3OC)c12` [Compound 143, 1-[(4-{[(3aR/6aS)-octahydropyrrolo [3,4-c]pyrrol-2-yl]methyl}-2-methoxyphenyl)methyl]-N7-butyl-1H-pyrazolo[4,3-d]pyrimidine-5,7-diamine], the 50% effective concentration (EC50) amounted to 62.2 nM in test [1] and 1.29 nM in test [2].
